Test system: rat liver proteins (vimentin, fibrinogen)
Assay: iTRAQ proteomics / Western blot of liver protein of DMN-treated rats
Format: in vivo
Conditions: DMN-induced rats
Description: The liver tissues of 6 control and 6 DMN-treated rats were used to perform duplicate iTRAQ labeling experiments. Liver tissue was frozen in liquid nitrogen and then pulverized to powder using a mortar and pestle pre-cooled with liquid nitrogen. Then, the liquid nitrogen was allowed to evaporate, and the powdered tissue was separated into tubes and stored at −80° C. Twenty volumes (w/v) of lysis buffer (containing 2% (w/v) SDS in 20 mM phosphate buffer at pH 7.6) was added to the powdered tissue and incubated at room temperature for 1 hour. […]
The total protein contents were determined using the Coomassie Plus Protein Assay Reagent (PIERCE, Rockford, Ill., U.S.A.). […]
Peptides with different isobaric tags were pooled and acidified by mixing with 10 mM phosphoric acid (in 25% (v/v) acetonitrile and 75% H2O) to a total volume of 4.0 mL for strong cation exchange (SCX) chromatography. […] The desalted peptide from each SCX fraction was dried by speed vacuuming centrifugation and then analyzed by nanoLC hybrid mass spectrometry. […] MS/MS mass spectra were analyzed in continuous flow mode with a […] I.D. fused silica tip. MS/MS spectra were analyzed against rat.fasta databases from NCBI by ProQUANT 2.0 (Applied Biosystems/MDS Sciex, Foster City, Calif., U.S.A.). […] Relative quantification of peptide was performed on the MS/MS scans, using ratio of the areas under the peaks. […]

SMILES: CN(C)N=O [DMN, Dimethylnitrosamine]
- Fibrinogen protein expression: up-regulated

Source: patent US7972785B2, “Biomarkers for liver fibrotic injury” (Industrial Technology Research Institute (ITRI), priority 2006, dated 2011)
